Source: patent publication US6864286B2, “Inhibitors of the EGF-receptor tyrosine kinase and methods for their use” (Parker Hughes Institute, priority 1998, dated 2005)
Entries after “also recorded” stand apart in the source; their conditions may differ.

Experiments:
[1] = molecular target: T1, insulin receptor kinase (IRK) (Homo sapiens, UniProt P06213); assay: Cell-free IRK immune complex kinase assay; assay type: biochemical; settings: for effect on enzymatic activity of IRK: at concentrations as high as 350 μM, IRK from HepG2 cells
T1 construct: IRK was immunoprecipitated from the lysates with an anti-IRb antibody; endogenous in cells; host or cells: HepG2 human hepatoma cells (ATCC)
T1 sequence (P06213 763-1382 limits assumed): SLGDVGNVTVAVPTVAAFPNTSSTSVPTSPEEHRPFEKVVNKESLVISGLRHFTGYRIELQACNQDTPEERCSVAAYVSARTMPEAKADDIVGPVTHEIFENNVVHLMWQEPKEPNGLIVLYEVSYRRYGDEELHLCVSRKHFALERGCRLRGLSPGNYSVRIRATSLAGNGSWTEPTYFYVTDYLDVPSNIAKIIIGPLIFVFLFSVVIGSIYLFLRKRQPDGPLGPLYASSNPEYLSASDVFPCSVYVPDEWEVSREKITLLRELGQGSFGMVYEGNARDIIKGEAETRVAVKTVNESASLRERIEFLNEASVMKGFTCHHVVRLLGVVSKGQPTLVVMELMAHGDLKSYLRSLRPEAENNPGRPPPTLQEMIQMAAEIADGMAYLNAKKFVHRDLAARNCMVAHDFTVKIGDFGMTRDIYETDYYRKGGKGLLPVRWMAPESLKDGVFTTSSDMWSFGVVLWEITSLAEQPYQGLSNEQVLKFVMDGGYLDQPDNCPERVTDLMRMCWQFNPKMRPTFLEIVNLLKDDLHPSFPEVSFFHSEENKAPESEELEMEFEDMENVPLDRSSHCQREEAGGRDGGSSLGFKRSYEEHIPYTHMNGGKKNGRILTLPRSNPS
T1 sequence (P06213 28-758 partner limits assumed): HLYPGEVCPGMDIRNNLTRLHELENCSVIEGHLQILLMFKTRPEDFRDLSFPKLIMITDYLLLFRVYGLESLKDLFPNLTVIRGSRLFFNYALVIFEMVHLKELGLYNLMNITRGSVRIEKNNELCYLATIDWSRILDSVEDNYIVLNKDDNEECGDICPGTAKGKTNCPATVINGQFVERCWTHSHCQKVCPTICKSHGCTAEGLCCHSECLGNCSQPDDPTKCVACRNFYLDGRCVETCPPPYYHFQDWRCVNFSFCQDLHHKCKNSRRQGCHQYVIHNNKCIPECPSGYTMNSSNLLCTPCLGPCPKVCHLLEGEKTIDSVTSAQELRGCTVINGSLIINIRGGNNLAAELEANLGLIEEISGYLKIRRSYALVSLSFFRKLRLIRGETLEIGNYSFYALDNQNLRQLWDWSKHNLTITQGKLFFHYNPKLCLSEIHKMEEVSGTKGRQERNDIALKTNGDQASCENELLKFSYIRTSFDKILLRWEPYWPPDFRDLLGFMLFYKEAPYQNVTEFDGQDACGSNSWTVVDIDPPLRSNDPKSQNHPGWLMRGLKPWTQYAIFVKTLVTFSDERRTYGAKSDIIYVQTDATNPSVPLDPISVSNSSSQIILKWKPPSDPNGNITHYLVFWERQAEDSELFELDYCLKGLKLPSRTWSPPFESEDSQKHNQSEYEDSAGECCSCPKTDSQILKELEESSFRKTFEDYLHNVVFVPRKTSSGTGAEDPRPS
Protocol: (§1) Immunoprecipitations, immune-complex protein kinase assays, and immunoblotting using the ECL chemiluminescence detection system (Amersham Life Sciences) were conducted as described previously (Vassilev, A., et al. J. Biol. Chem. 1998, in press; Goodman, P. A., et al. J. Biol. Chem. 1998, 273, 17742; Mahajan, S., et al. Mol. Cell. Biol. 1995, 15, 5304; Uckun, F. M., et al. Science 1996, 22, 1096).
Horse radish peroxidase-conjugated sheep anti-mouse, donkey anti-rabbit secondary antibodies and ECL reagents were purchased from Amersham (Oakbrook, Ill.). For insulin receptor kinase (IRK) assays, HepG2 human hepatoma cells grown to approximately 80% confluency were washed once with serum-free DMEM and starved for 3 hour at 37° in a CO2 incubator. Subsequently, cells were stimulated with insulin (Eli Lilly, cat# CP-410;10 units/ml/10×10^6 cells) for 10 minutes at room temperature. Following this IRK activation step, cells were washed once with serum free medium, lysed in NP-40 buffer and IRK was immunoprecipitated from the lysates with an anti-IRb antibody (Santa Cruz, Cat.# sc-711, polyclonal IgG). Prior to performing the immunecomplex kinase assays, the beads were equilibrated with the kinase buffer (30 mM Hepes pH 7.4, 30 mM NaCl, 8 mM MgCl2, 4 mM MnCl2).

[2] = tested on: MDA-MB-231 breast cancer cells; assay: Flow cytometric apoptosis assay (MC540 binding / PI permeability); assay type: cell-based, human; settings: for Apoptotic fraction [AF] with MC540+/PI+ advanced stage apoptosis: 24 hours
From the text: Loose packing of membrane phospholipid head groups and cell shrinkage precede DNA fragmentation in apoptotic cells, thereby providing MC540 binding as an early marker for apoptosis (Uckun F. M., et al. Clin. Cancer Res. 1998, 4, 901-912; and Kuo, E. A. J. Med. Chem. 1996, 39, 4608-4621). Plasma membrane permeability to propidium iodide (PI, Sigma) develops at a later stage of apoptosis (Uckun F. M., et al. Clin. Cancer Res. 1998, 4, 901-912; and Kuo, E. A. J. Med. Chem. 1996, 39, 4608-4621). MC540 binding and PI permeability were simultaneously measured in breast cancer cells 24 hours after exposure to leflunomide analogs, as described (Uckun F. M., et al. Clin. Cancer Res. 1998, 4, 901-912. Stock solutions of MC540 and PI, each at 1 mg/mL, were passed through a 0.22 μm filter and stored at 4° C. in the dark. Shortly before analysis, suspensions containing 1×10^6 cells were suspended in 5 μg/mL MC540 and 10 μg/mL PI and kept in the dark at 4° C. Whole cells were analyzed with a FACS Calibur or FACS Vantage flow cytometer (Becton Dickinson, San Jose, Calif.). All analyses were done using 488 nm excitation from an argon laser. MC540 and PI emissions were split with a 600 nm short pass dichroic mirror and a 575 nm band pass filter was placed in front of one photomultiplier tube to measure MC540 emission and a 635 nm band pass filter was used for PI emission.
Loose packing of membrane phospholipid head groups and cell shrinkage precede DNA fragmentation in apoptotic cells, thereby providing MC540 binding as an early marker for apoptosis (Uckun, F. M. et al., Science, 1995, 267, 886-891). MC540 binding and propidium iodide (PI) permeability of MDA-MB-231 breast cancer cells were simultaneously measured before and after a 24 hour treatment with 100 μM or 500 μM LFM-A12. Whole cells were analyzed with a FACStar Plus flow cytometer (Becton Dickinson, San Jose, Calif.).

[3] = molecular target: T2, EGFR tyrosine kinase in MDA-MB-231 cells (Homo sapiens, UniProt P00533); assay: Cellular EGFR autophosphorylation, anti-phosphotyrosine Western blot; assay type: cell-based; settings: 24 hour exposure
T2 construct: anti-EGFR immunoprecipitates from lysates of MDA-MB-231 human breast cancer cells; endogenous in cells; host or cells: MDA-MB-231 (ATCC HTB-26)
T2 sequence (P00533 25-1210): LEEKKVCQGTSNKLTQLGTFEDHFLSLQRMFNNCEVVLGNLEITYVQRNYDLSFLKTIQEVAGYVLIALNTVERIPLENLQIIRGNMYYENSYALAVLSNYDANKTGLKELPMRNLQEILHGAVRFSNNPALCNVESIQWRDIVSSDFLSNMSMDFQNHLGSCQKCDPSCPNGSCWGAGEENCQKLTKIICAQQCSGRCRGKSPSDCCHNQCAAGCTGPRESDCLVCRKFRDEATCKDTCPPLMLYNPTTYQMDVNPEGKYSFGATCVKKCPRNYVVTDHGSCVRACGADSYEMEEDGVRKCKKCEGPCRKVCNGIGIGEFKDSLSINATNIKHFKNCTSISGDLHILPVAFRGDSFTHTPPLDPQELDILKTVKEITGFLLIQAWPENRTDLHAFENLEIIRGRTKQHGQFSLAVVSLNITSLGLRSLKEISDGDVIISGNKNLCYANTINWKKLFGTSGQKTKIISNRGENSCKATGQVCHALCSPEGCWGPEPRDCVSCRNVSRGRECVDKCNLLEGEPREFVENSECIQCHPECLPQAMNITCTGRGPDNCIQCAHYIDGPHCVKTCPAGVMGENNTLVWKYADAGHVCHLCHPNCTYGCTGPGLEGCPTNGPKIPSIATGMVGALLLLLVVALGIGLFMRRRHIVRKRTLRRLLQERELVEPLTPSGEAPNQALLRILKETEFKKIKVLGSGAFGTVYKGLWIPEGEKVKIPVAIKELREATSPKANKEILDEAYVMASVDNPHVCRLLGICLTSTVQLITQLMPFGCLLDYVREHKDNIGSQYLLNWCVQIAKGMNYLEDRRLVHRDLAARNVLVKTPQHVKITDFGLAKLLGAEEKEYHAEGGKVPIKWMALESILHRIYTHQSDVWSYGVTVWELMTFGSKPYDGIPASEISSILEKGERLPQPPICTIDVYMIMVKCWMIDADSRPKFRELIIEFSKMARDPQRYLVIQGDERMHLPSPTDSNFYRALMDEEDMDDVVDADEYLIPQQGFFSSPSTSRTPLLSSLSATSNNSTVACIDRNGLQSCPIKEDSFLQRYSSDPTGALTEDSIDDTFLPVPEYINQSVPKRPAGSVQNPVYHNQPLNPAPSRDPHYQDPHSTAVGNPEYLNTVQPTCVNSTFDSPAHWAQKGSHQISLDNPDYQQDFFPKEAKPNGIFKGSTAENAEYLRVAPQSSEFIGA
Protocol: For EGFR immune complex kinase assays, 24-hours after treatment with leflunomide analogs, MDA-MB-231 breast cancer cells were stimulated with 20 ng/mL EGF for 5 minutes, lysed in 1% Nonidet-P-40 buffer, and cell lysates were immunoprecipitated with an anti-EGFR antibody reactive with the sequence Ala^351-Asp^364 of the human EGFR (Upstate Biotechnology Inc. [UBI] Catalog # 05-104) (Uckun, F. M., et al. Clin. Can. Res. 1998, 4, 901). EGFR immune complexes were examined for tyrosine phosphorylation by Western blot analysis, as described by Uckun, F. M., et al. Clin. Can. Res. 1998, 4, 901. All anti-phosphotyrosine Western blots were subjected to densitometric scanning using the automated AMBIS system (Automated Microbiology System, Inc., San Diego, Calif.) and for each time point a % inhibition value was determined by comparing the density ratios of the tyrosine phosphorylated EGFR protein bands to those of the baseline sample and using the formula: % Inhibition=100−100×[Density of tyrosine phosphorylated EGFR band]test sample/[Density of tyrosine phosphorylated EGFR band]baseline control sample. The IC50 values were determined using an Inplot program (Graphpad Software, Inc., San Diego, Calif.).
The effects of LFM and LFM analogs on the enzymatic activity of the EGFR tyrosine kinase in breast cancer cells were also examined. […]

[4] = molecular target: T3, BTK (Homo sapiens, UniProt Q06187); assay: Cell-free BTK immune complex kinase assay; assay type: biochemical; settings: for effect on enzymatic activity of BTK: at concentrations as high as 350 μM
T3 construct: made in house; host or cells: Sf21 insect cells (baculovirus)
T3 sequence (Q06187 whole entry, species assumed): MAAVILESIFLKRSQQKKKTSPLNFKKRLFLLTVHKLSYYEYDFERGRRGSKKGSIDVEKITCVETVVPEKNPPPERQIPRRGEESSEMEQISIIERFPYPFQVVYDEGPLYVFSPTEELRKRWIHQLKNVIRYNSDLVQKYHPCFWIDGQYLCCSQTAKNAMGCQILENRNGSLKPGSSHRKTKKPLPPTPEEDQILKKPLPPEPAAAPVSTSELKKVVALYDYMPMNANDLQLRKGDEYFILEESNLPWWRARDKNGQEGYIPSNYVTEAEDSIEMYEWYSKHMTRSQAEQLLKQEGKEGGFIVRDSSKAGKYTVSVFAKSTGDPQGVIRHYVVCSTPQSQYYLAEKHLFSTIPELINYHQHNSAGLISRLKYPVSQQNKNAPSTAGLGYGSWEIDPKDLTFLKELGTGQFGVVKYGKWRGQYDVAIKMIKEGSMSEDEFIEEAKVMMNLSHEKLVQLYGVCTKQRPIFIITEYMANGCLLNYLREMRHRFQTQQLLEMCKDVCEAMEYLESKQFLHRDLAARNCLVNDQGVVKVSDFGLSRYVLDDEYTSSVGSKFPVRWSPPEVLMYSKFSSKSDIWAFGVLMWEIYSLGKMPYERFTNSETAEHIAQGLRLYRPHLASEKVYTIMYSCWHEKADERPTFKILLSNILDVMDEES
Protocol: as §1

effect on enzymatic activity of BTK [4]	IC50 ([1]; IRK, cell-free, read-out: Inhibition IC50) [µM]	IC50 ([4]; BTK, cell-free, read-out: Inhibition IC50) [µM]	Compound	effect on enzymatic activity of IRK [1]	induction of apoptosis ([2]; MDA-MB-231, 24 hours)	tyrosine phosphorylation of the EGFR after EGF stimulation [3]	Apoptotic fraction [AF] with MC540+/PI+ advanced stage apoptosis ([2]; MDA-MB-231, 100 μM) [%]	Apoptotic fraction [AF] with MC540+/PI+ advanced stage apoptosis ([2]; MDA-MB-231, 500 μM) [%]
did not affect the enzymatic activity	–	–	CC(O)=C(C#N)C(=O)Nc1ccc(C(F)(F)F)cc1 [LFM, α-Cyano-β-hydroxy-β-methyl-N-[4-(trifluoromethyl)phenyl]-propenamide, reference compound]	did not affect the enzymatic activity; also recorded: lack of inhibition	albeit to a lesser extent, also induced apoptosis	to a lesser extent	–	–
did not affect the enzymatic activity	> 350	> 175	C/C(O)=C(\C#N)C(=O)Nc1ccc(OC(F)(F)F)cc1 [LFM-A12, α-Cyano-β-hydroxy-β-methyl-N-[4-(trifluoromethoxy)phenyl]-propenamide]	did not affect the enzymatic activity; also recorded: lack of inhibition	–	decreased tyrosine phosphorylation of the EGFR	54	85
